Source: ChEMBL document CHEMBL4184182, “Studies on interactions of carbazole derivatives with DNA, cell image, and cytotoxicity” (Bioorg Med Chem, 2018)

Key:
Type in all cases: nucleic-acid assay
[1] = test system: Quadruplex DNA; test: Binding affinity to human telomeric G-quadruplex DNA assessed as red shift at 10 uM after 5 mins in presence of potassium ion by UV-Visible absorbance titration method
[2] = test system: Quadruplex DNA; test: Binding affinity to human telomeric G-quadruplex DNA assessed as enhanced fluorescence ratio at 5 uM after 5 mins in presence of potassium ion by fluorescence titration assay relative to control
[3] = test system: Quadruplex DNA; test: Binding affinity to Bcl2 G-quadruplex DNA (unknown origin) assessed as compound fluorescence life time at 5 uM after 5 mins by fluorescence titration method (reference value: 3.626 nanoseconds)

Activity [1] [nm]	Ratio [2]	Time [3] [nanoseconds]	SMILES
21			CCn1c2ccccc2c2cc(/C=C/c3sc4ccccc4[n+]3CC)ccc21.[I-]
	> 6	6.55	CCn1c2ccccc2c2cc(/C=C(\C#N)c3ccc[n+](C)c3)ccc21.[I-]
